Laboratory results from PMC9046087, “Structural basis of tethered agonism of the adhesion GPCRs ADGRD1 and ADGRF1” (Nature, 2022).
Ends that are not written are not given here.

Assays:
Assay in all cases: BRET assay using TRUPATH biosensors, Gi activation of ADGRF1
Format in all cases: cell-based
[1] = target: T1, ADGRF1 (Homo sapiens, UniProt Q5T601, G807W); conditions: ADGRF1 G807^6.56bW, n = 3
T1 construct: Flag (N); expressed in transfected cells; host or cells: HEK293F
How it was run: (§1)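 HEK293F cells transiently co-transfected with wild-type or mutant receptor, Gα-RLuc8 (GαsS for Gs, Gαi1 for Gi), Gβ3 and Gγ9-GFP2 at 2:1:1:1. After 30 min at 37 °C and coelenterazine 400a, cells stimulated with synthetic stalk peptide. BRET = GFP2/RLuc8 emission, last of five readings.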

[2] = target: T2, ADGRF1 (Homo sapiens, UniProt Q5T601, L593A); conditions: ADGRF1 L593^1.47bA
T2 construct: Flag (N); expressed in transfected cells; host or cells: HEK293F
T2 sequence (Q5T601 20-910 L593A): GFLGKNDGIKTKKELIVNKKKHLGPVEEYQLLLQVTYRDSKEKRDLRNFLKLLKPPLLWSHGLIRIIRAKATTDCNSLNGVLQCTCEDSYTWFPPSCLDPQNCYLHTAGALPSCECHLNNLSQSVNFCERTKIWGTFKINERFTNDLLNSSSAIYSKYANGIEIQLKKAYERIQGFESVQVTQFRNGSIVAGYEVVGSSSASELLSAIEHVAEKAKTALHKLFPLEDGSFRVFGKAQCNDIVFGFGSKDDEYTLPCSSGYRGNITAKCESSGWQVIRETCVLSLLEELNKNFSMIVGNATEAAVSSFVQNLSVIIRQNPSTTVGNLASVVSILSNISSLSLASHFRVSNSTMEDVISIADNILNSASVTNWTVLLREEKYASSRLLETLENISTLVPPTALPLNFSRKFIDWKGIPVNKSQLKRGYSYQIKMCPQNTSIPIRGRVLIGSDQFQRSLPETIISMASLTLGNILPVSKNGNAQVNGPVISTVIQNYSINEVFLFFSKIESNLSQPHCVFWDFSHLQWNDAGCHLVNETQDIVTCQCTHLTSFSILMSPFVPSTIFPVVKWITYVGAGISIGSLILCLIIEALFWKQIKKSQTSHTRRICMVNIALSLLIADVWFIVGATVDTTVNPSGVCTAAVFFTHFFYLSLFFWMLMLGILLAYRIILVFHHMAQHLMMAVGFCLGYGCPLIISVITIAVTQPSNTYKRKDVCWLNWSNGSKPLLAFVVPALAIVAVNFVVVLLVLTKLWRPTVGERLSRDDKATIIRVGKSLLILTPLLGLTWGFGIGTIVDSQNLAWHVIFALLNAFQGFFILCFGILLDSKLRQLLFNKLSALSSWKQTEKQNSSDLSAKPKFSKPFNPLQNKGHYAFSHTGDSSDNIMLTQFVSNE
How it was run: as §1

[3] = target: T3, ADGRF1 (Homo sapiens, UniProt Q5T601, L681A); conditions: ADGRF1 L681^3.53bA
T3 construct: Flag (N); expressed in transfected cells; host or cells: HEK293F
T3 sequence (Q5T601 20-910 L681A): as the sequence (Q5T601 20-910 L593A) above, with A574L, L662A counted along it
How it was run: as §1

[4] = target: T4, ADGRF1 (Homo sapiens, UniProt Q5T601, L682A); conditions: ADGRF1 L682^3.54bA
T4 construct: Flag (N); expressed in transfected cells; host or cells: HEK293F
T4 sequence (Q5T601 20-910 L682A): as the sequence (Q5T601 20-910 L593A) above, with A574L, L663A counted along it
How it was run: as §1

[5] = target: T5, ADGRF1 (Homo sapiens, UniProt Q5T601, L764A); conditions: ADGRF1 L764^5.56bA, n = 3
T5 construct: Flag (N); expressed in transfected cells; host or cells: HEK293F
T5 sequence (Q5T601 20-910 L764A): as the sequence (Q5T601 20-910 L593A) above, with A574L, L745A counted along it
How it was run: as §1

[6] = target: T6, ADGRF1 (Homo sapiens, UniProt Q5T601, L800A); conditions: ADGRF1 L800^6.49bA
T6 construct: Flag (N); expressed in transfected cells; host or cells: HEK293F
T6 sequence (Q5T601 20-910 L800A): as the sequence (Q5T601 20-910 L593A) above, with A574L, L781A counted along it
How it was run: as §1

[7] = target: T7, ADGRF1 (Homo sapiens, UniProt Q5T601, M675A); conditions: ADGRF1 M675^3.47bA
T7 construct: Flag (N); expressed in transfected cells; host or cells: HEK293F
T7 sequence (Q5T601 20-910 M675A): as the sequence (Q5T601 20-910 L593A) above, with A574L, M656A counted along it
How it was run: as §1

[8] = target: T8, ADGRF1 (Homo sapiens, UniProt Q5T601, N827A); conditions: ADGRF1 N827^7.46bA
T8 construct: Flag (N); expressed in transfected cells; host or cells: HEK293F
T8 sequence (Q5T601 20-910 N827A): as the sequence (Q5T601 20-910 L593A) above, with A574L, N808A counted along it
How it was run: as §1

[9] = target: T9, ADGRF1 (Homo sapiens, UniProt Q5T601, T810A); conditions: ADGRF1 T810^6.59bA
T9 construct: Flag (N); expressed in transfected cells; host or cells: HEK293F
T9 sequence (Q5T601 20-910 T810A): as the sequence (Q5T601 20-910 L593A) above, with A574L, T791A counted along it
How it was run: as §1

[10] = target: T10, ADGRF1 (Homo sapiens, UniProt Q5T601, V689A); conditions: ADGRF1 V689^ICL2A
T10 construct: Flag (N); expressed in transfected cells; host or cells: HEK293F
T10 sequence (Q5T601 20-910 V689A): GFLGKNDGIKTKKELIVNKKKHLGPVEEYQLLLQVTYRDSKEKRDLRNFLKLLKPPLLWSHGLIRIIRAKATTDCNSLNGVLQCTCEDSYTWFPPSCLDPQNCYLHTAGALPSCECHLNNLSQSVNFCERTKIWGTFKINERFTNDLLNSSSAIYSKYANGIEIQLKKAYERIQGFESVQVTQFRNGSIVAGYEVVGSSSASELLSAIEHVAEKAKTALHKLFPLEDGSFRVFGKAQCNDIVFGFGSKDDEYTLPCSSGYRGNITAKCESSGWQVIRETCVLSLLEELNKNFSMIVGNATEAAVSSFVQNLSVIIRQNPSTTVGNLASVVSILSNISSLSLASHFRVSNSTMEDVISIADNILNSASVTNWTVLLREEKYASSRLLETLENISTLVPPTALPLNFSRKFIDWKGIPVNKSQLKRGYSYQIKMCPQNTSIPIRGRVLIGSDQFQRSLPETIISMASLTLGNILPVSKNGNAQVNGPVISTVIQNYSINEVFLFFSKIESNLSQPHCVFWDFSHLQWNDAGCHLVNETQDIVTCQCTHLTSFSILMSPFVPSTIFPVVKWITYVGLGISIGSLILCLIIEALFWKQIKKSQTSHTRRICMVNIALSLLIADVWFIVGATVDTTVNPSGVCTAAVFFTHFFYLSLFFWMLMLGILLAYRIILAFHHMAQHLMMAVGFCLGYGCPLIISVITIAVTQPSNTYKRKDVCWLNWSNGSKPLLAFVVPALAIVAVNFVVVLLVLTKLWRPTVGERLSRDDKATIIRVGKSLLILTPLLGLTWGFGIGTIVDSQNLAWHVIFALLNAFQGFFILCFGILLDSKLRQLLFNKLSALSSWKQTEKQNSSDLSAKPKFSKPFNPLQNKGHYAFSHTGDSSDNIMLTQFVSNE
How it was run: as §1

[11] = target: T11, ADGRF1 (Homo sapiens, UniProt Q5T601, V765A); conditions: ADGRF1 V765^5.57bA
T11 construct: Flag (N); expressed in transfected cells; host or cells: HEK293F
T11 sequence (Q5T601 20-910 V765A): as the sequence (Q5T601 20-910 L593A) above, with A574L, V746A counted along it
How it was run: as §1

[12] = target: T12, ADGRF1 (Homo sapiens, UniProt Q5T601, W734A); conditions: ADGRF1 W734^ECL2A
T12 construct: Flag (N); expressed in transfected cells; host or cells: HEK293F
T12 sequence (Q5T601 20-910 W734A): as the sequence (Q5T601 20-910 L593A) above, with A574L, W715A counted along it
How it was run: as §1

[13] = target: T13, ADGRF1 (Homo sapiens, UniProt Q5T601, W804A); conditions: ADGRF1 W804^6.53bA
T13 construct: Flag (N); expressed in transfected cells; host or cells: HEK293F
T13 sequence (Q5T601 20-910 W804A): as the sequence (Q5T601 20-910 L593A) above, with A574L, W785A counted along it
How it was run: as §1

[14] = target: T14, ADGRF1 (Homo sapiens, UniProt Q5T601, Y684A); conditions: ADGRF1 Y684^3.56bA
T14 construct: Flag (N); expressed in transfected cells; host or cells: HEK293F
T14 sequence (Q5T601 20-910 Y684A): as the sequence (Q5T601 20-910 L593A) above, with A574L, Y665A counted along it
How it was run: as §1

[15] = n = 3, read-out: pEC50 (mean ± s.e.m.) (converted)

T1 sequence (Q5T601 20-910 G807W): as the sequence (Q5T601 20-910 L593A) above, with A574L, G788W counted along it

EC50 [1]: 1520 nM
Emax (mean ± s.e.m.) [1]: 101 ± 13 % of WT
Emax (mean ± s.e.m.) ([2]; n = 3): 106 ± 11 % of WT
EC50 [2, 15]: 562 nM
Emax (mean ± s.e.m.) ([3]; n = 3): 59 ± 10 % of WT
EC50 [3, 15]: 120 nM
Emax (mean ± s.e.m.) ([4]; n = 3): 79 ± 12 % of WT
EC50 [4, 15]: 269 nM
EC50 [5]: 1300 nM
Emax (mean ± s.e.m.) [5]: 86 ± 14 % of WT
Emax (mean ± s.e.m.) ([6]; n = 3): 105 ± 8 % of WT
EC50 [6, 15]: 257 nM
Emax (mean ± s.e.m.) ([7]; n = 3): 81 ± 13 % of WT
EC50 [7, 15]: 427 nM
Emax (mean ± s.e.m.) ([8]; n = 3): 122 ± 13 % of WT
EC50 [8, 15]: 389 nM
Emax (mean ± s.e.m.) ([9]; n = 3): 81 ± 12 % of WT
EC50 [9, 15]: 562 nM
Emax (mean ± s.e.m.) ([10]; n = 3): 67 ± 7 % of WT
EC50 [10, 15]: 263 nM
Emax (mean ± s.e.m.) ([11]; n = 3): 92 ± 16 % of WT
EC50 [11, 15]: 912 nM
Emax (mean ± s.e.m.) ([12]; n = 3): 60 ± 11 % of WT
EC50 [12, 15]: 138 nM
Emax (mean ± s.e.m.) ([13]; n = 4): 86 ± 19 % of WT
EC50 ([13]; n = 4, read-out: pEC50 (mean ± s.e.m.) (converted)): 977 nM
Emax (mean ± s.e.m.) ([14]; n = 3): 115 ± 17 % of WT
EC50 [14, 15]: 813 nM
Sequence: TSFSILMSPFVP [pF1]
